Source: the supplement of paper PMC10307832

Key:
Assay in all cases: relative viability (nuclei count vs DMSO), 5 days (fraction); higher = more cells survive
Carboplatin = compound: C1CC(C1)(C(=O)O)C(=O)O.[NH2-].[NH2-].[Pt+2] [Carboplatin]
Procedure, shortened: (§1)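 Lung cancer cell lines in 1536-well plates were kept overnight at 37 °C, then pinned with five library-drug doses (not always all listed) spaced by √10 on vehicle-anchored plates. After 5 days without medium change, cells were fixed, permeabilised and Hoechst-stained in one step, imaged at 4×, and nuclei were counted with MetaXpress. Viability is treated-well nuclei divided by vehicle-well nuclei, taken as the median over plates. Plates passed only with control CV below 25% and at least one doubling.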

GSK126 = compound: CC[C@H](C)N1C=C(C2=C(C=C(C=C21)C3=CN=C(C=C3)N4CCNCC4)C(=O)NCC5=C(C=C(NC5=O)C)C)C [GSK126]
Procedure, shortened: as §1

MLN4924 = compound: NS(=O)(=O)OC[C@@H]1C[C@@H](n2ccc3c(N[C@H]4CCc5ccccc54)ncnc32)C[C@@H]1O [MLN4924]
Procedure, shortened: as §1

MLN4924 + Trametinib = compound: NS(=O)(=O)OC[C@@H]1C[C@@H](n2ccc3c(N[C@H]4CCc5ccccc54)ncnc32)C[C@@H]1O [MLN4924] + CC(=O)Nc1cccc(-n2c(=O)n(C3CC3)c(=O)c3c(Nc4ccc(I)cc4F)n(C)c(=O)c(C)c32)c1 [Trametinib] (partner 0.02 µM)
Procedure, shortened: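 Relative viability was taken as the ratio of nuclei in treated wells to nuclei in vehicle wells. Lung cancer cell lines in 1536-well plates received compounds by pin tool one day after seeding, either one drug alone or a fixed anchor-drug dose plus five library-drug doses (not always all listed) in √10 steps. Nuclei were counted on 4× images after 5 days of treatment, and values are medians of duplicate plates.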

## UMC-11
Carboplatin; 0.08 µM
  relative viability: 0.982
Carboplatin; 0.253 µM
  relative viability: 0.996
Carboplatin; 0.8 µM
  relative viability: 1.01
Carboplatin; 2.53 µM
  relative viability: 0.923
Carboplatin; 8 µM
  relative viability: 0.767
GSK126; 0.08 µM
  relative viability: 1.09
GSK126; 0.253 µM
  relative viability: 0.982
GSK126; 0.8 µM
  relative viability: 1.02
GSK126; 2.53 µM
  relative viability: 1.01
GSK126; 8 µM
  relative viability: 1.11
MLN4924; 0.04 µM
  relative viability: 0.678
MLN4924; 0.1265 µM
  relative viability: 0.463
MLN4924; 0.4 µM
  relative viability: 0.383
MLN4924; 1.265 µM
  relative viability: 0.189
MLN4924; 4 µM
  relative viability: 0.19
MLN4924 + Trametinib; first compound 0.04 µM
  relative viability: 0.487
MLN4924 + Trametinib; first compound 0.1265 µM
  relative viability: 0.367
MLN4924 + Trametinib; first compound 0.4 µM
  relative viability: 0.253
MLN4924 + Trametinib; first compound 1.265 µM
  relative viability: 0.115
MLN4924 + Trametinib; first compound 4 µM
  relative viability: 0.142
